Experimental findings from EP4692071A1, “PHOTOCHROMIC COMPOUND, NAPHTHOL DERIVATIVE, CURABLE COMPOSITION, OPTICAL ARTICLE, LENS, AND EYEGLASS” (TOKUYAMA CORPORATION, priority 2023, dated 2024) are described below.

Holding throughout (assay type): physicochemical
The nature of series [1]: Residual rate (A90/A0×100) after 90 h accelerated deterioration in xenon weather meter X25, color developing durability. The following applies: for Residual rate (%): xenon weather meter 90 hours; for Residual rate: after 90 h accelerated deterioration. Here is the method:
(§1) • [1] Maximum Absorption Wavelength (λmax): The maximum absorption wavelength after color development, measured using a spectrophotometer (instantaneous multichannel photodetector MCPD3000) manufactured by Otsuka Electronics Co., Ltd. was used as an indicator for the color tone during the color development. • [2] 23°C Color Optical Density (A23): A difference between an absorbancy measured after light irradiation at 23°C for 240 seconds {ε(240)} and an absorbancy without light irradiation ε(0) at the maximum absorption wavelength was used as an indicator for the color optical density. […] 35°C Color Optical Density (A35): A difference between an absorbancy measured after light irradiation at 35°C for 240 seconds {ε(240)} and an absorbancy without light irradiation ε(0) at the first and second absorption wavelengths was used as an indicator for the color optical density. […] 23°C color fading half-life [τ1/2 (sec.)]: A time required for the absorbancy of the sample at the maximum absorption wavelength to decrease to 1/2 of {ε(240)-ε(0)} when the light irradiation is terminated after the light irradiation at 23°C for 240 seconds, was used as an indicator for the color fading speed. The shorter this time, the higher the color fading speed. • [6] Residual rate (A90/A0×100): The obtained photochromic plastic lens was subjected to accelerated deterioration using a xenon weather meter X25 manufactured by Suga Test Instruments Co., Ltd. for 90 hours. Subsequently, the color optical density was evaluated before and after the test, then a color optical density before the test (A0) and a color optical density after the test (A90) were measured, and a ratio (A90/A0) was defined as a residual rate. The residual rate was used as an indicator for a color developing durability. The higher the residual rate, the higher the color developing durability.

Series [2] can be described thus: 23°C color optical density (A23): absorbancy difference ε(240)-ε(0) after 240 s light irradiation at 23°C. The following applies: 240 s irradiation; for 23°C color optical density (-): comparative compounds. The procedure:
as §1

The nature of series [3]: High-temperature color development rate (A35/A23×100), temperature dependency. The following applies: for Temperature change rate (%): comparative compounds, corresponds to A35/A23×100. Here is the method: as §1
The nature of series [4]: 35°C color optical density (A35): absorbancy difference ε(240)-ε(0) after 240 s light irradiation at 35°C. The following applies: 240 s irradiation; for 35°C color optical density (-): comparative compounds. Here is the method: as §1
Series [5] can be described thus: Maximum absorption wavelength (λmax) after color development, spectrophotometer MCPD3000. The following applies: for Maximum absorption wavelength: after color development. Here is the method: as §1
The mark [6] stands for this setting: cured product by kneading method, 1 mm.
Setting [7] is: photochromic laminate by coating method.
Where [8] appears, read: photochromic laminate by coating method, at the maximum absorption wavelength.
Setting [9] is: binder sheet (binder method), urethaneurea resin photochromic layer between polycarbonate sheets, 0.25 mmol per 100 parts by mass resin.
Where [10] appears, read: photochromic cured product by kneading method, 1 mm thick thiourethane, 0.106 mmol per 100 g monomers.
The mark [11] stands for this setting: photochromic laminate by coating method, 40 µm photochromic layer on thiourethane lens, 0.25 mmol compound per 100 g monomers.
The mark [12] stands for this setting: photochromic laminate prepared by coating method.
Setting [13] is: photochromic laminate by coating method, absorption band at 469 nm.
[14] abbreviates: photochromic laminate by coating method, absorption band at 570 nm.
Where [15] appears, read: photochromic cured product, thickness 1 mm (kneading method).

For `CCCC1(CCC)c2ccccc2-c2c1c1c(c3cc(OC)c(N4CCOc5ccccc54)cc23)OC(c2ccc(OC)cc2)(c2ccc(OC)cc2)C=C1` [Example 10 Formula (59)], the “Residual rate (%)” value is given as 94% in series [1] (binder sheet (binder method)), 89% in series [1] (setting [6]) and 82% in series [1] (setting [7]). Further, the results for the “A23 (-)” value in series [2] (binder sheet (binder method)), in series [2] (setting [6]) and in series [2] (setting [8]) were 1.32 -, 1.34 - and 1.3 -, respectively. Further, the “A35/A23 *100 (%)” value in series [3] (binder sheet (binder method)) amounted to 66%; in series [3] (setting [6]), 68%; in series [3] (setting [7]), 66%. Also, the “A35 (-)” value in series [4] (binder sheet (binder method)) is recorded as 0.87 -; in series [4] (setting [6]), 0.91 -; in series [4] (setting [7]) it was 0.86 -. Further, the figures for the “Maximum absorption wavelength (nm)” value in series [5] (setting [9]), in series [5] (setting [10]) and in series [5] (setting [11]) were 510 nm, 514 nm and 510 nm, respectively.
As for `COc1ccc(C2(c3ccc(OC)cc3)C=Cc3c4c(c5cc(N6CCCCC6)c(OC)cc5c3O2)-c2ccccc2C4(C)C)cc1` [Formula (E), reference compound], the Residual rate in series [1] (binder sheet (binder method)) turned out to be 68%; in series [1] (setting [12]), 51%. For the same compound, the “Residual rate (%)” value in series [1] (binder sheet (binder method)) worked out at 68%; in series [1] (setting [7]), 51%. For the same compound, the “A23 (-)” value in series [2] (binder sheet (binder method)) is on record as 1.85 -. Besides, the “23°C color optical density (-)” value in series [2] (setting [7]) is recorded as 1.81 -. For the same compound, the “A35/A23 *100” value is recorded as 70% in series [3] (binder sheet (binder method)) and 71% in series [3] (setting [12]). Further, the “A35/A23 *100 (%)” value in series [3] (binder sheet (binder method)) is given as 70%. Moreover, the “Temperature change rate (%)” value in series [3] (setting [7]) was determined as 71%. Further, the “A35 (-)” value in series [4] (binder sheet (binder method)) is reported as 1.30 -. The “35°C color optical density (-)” value in series [4] (setting [7]) was 1.28 -. Moreover, the “Maximum absorption wavelength (nm)” value in series [5] (setting [9]) and in series [5] (setting [11]) was 481 nm in each case. Besides, the Maximum absorption wavelength in series [5] (binder sheet (binder method)) and in series [5] (setting [12]) was 481 nm in each case.
`COc1ccc(C2(c3ccc(N4CCOCC4)cc3)C=Cc3c4c(c5cc(N6CCOc7ccccc76)c(C)cc5c3O2)-c2ccc(OC)cc2C4(CCCCF)CCCCF)cc1` (stereo not drawn) [Example 47 Formula (102)]: the results for the “Residual rate (%)” value in series [1] (binder sheet (binder method)) and in series [1] (setting [7]) were 88% and 73%, respectively. The “A23 (-)” value in series [2] (binder sheet (binder method)) is 1.27 -; in series [2] (setting [8]), 1.25 -. Also, the “A35/A23 *100 (%)” value in series [3] (binder sheet (binder method)) and in series [3] (setting [7]) was 66% each time. In addition, the “A35 (-)” value in series [4] (binder sheet (binder method)) is 0.84 -; in series [4] (setting [7]), 0.83 -. For the same compound, the “Maximum absorption wavelength (nm)” value in series [5] (setting [9]) and in series [5] (setting [11]) was 521 nm in each case.
On to `COc1ccc(C2(c3ccc(OC)cc3)C=Cc3c4c(c5cc(N6CCc7ccccc7C6)c(OC)cc5c3O2)-c2ccccc2C4(C)C)cc1` [Formula (F), reference compound], for which the “Residual rate (%)” value was 64% in series [1] (binder sheet (binder method)) and 50% in series [1] (setting [7]). Also, the “A23 (-)” value in series [2] (binder sheet (binder method)) is 1.85 -. Moreover, in series [2] (setting [7]), the “23°C color optical density (-)” value was 1.81 -. Also, the “A35/A23 *100 (%)” value in series [3] (binder sheet (binder method)) was 70%. Also, the “Temperature change rate (%)” value in series [3] (setting [7]) is on record as 71%. The “A35 (-)” value in series [4] (binder sheet (binder method)) is given as 1.30 -. Also, the “35°C color optical density (-)” value in series [4] (setting [7]) is listed as 1.28 -. Further, the “Maximum absorption wavelength (nm)” value in series [5] (setting [9]) and in series [5] (setting [11]) was 481 nm each time.
As for `CCCCCCC1(CCCCCC)c2cc(Oc3ccccc3)ccc2-c2c1c1c(c3cc(OC)c(N(c4ccccc4)c4ccc(C)cc4)cc23)OC(c2ccc(OC)cc2)(c2ccc(OCCCC)cc2)C=C1` (stereo not drawn) [Example 52 Formula (119)], the “Residual rate (%)” value in series [1] (setting [7]) was 79%. Besides, the “A23 (-)” value in series [2] (setting [8]) is 1.82 -. For the same compound, the “A35/A23 *100 (%)” value in series [3] (setting [7]) came out at 74%. For the same compound, in series [4] (setting [7]), the “A35 (-)” value was 1.34 -. For the same compound, in series [5] (setting [11]), the “Maximum absorption wavelength (nm)” value is 518 nm.
For `COc1ccc(C2(c3ccc(OC)cc3)C=Cc3c4c(c5cc(Sc6c(C)cccc6C)c(OC)cc5c3O2)-c2ccccc2C4(C)C)cc1` [Formula (C), reference compound], the “Residual rate (%)” value in series [1] (setting [7]) was determined as 73%. Besides, the “23°C color optical density (-)” value in series [2] (setting [13]) is 1.20 -; in series [2] (setting [14]), 0.77 -. Moreover, the “Temperature change rate (%)” value in series [3] (setting [7]) was found to be 65%. Besides, the “35°C color optical density (-)” value in series [4] (setting [13]) is on record as 0.78 -; in series [4] (setting [14]), 0.50 -. The “Maximum absorption wavelength (nm)” value in series [5] (photochromic laminate by coating method, 40 µm photochromic layer on thiourethane lens, 0.25 mmol compound per 100 g monomers, absorption band at 469 nm) is 469 nm; in series [5] (photochromic laminate by coating method, 40 µm photochromic layer on thiourethane lens, 0.25 mmol compound per 100 g monomers, absorption band at 570 nm) it was 570 nm.
Turning to `COc1ccc(C2(c3ccc(N4CCOCC4)cc3)C=Cc3c4c(c5cc(N6CCCc7ccccc76)c(OC)cc5c3O2)-c2ccc(C)cc2C4(CCCC(F)(F)F)CCCC(F)(F)F)cc1` (stereo not drawn) [Example 8 Formula (54)], the “Residual rate (%)” value in series [1] (setting [6]) is given as 80%; in series [1] (setting [7]) it was 75%. For the same compound, the “A23 (-)” value in series [2] (setting [6]) was 1.20 -; in series [2] (setting [8]), 1.18 -. For the same compound, the “A35/A23 *100 (%)” value is listed as 66% in series [3] (setting [6]) and 64% in series [3] (setting [7]). For the same compound, the “A35 (-)” value in series [4] (setting [6]) is given as 0.79 -; in series [4] (setting [7]) it was 0.75 -. Besides, the “Maximum absorption wavelength (nm)” value in series [5] (setting [10]) turned out to be 549 nm; in series [5] (setting [11]) it was 545 nm.
With `COc1ccc(C2(c3ccc(OC)cc3)C=Cc3c4c(c5cc(N(C)c6ccc(F)cc6)c(OC)cc5c3O2)-c2ccccc2C4(C)C)cc1` [Example 4 Formula (34)], the “Residual rate (%)” value came to 93% in series [1] (binder sheet (binder method)), 84% in series [1] (setting [6]) and 80% in series [1] (setting [7]). Besides, the “A23 (-)” value in series [2] (binder sheet (binder method)) is 1.20 -; in series [2] (setting [6]) it was 1.20 -; in series [2] (setting [8]), 1.18 -. For the same compound, the “A35/A23 *100 (%)” value in series [3] (binder sheet (binder method)) is given as 66%; in series [3] (setting [6]), 67%; in series [3] (setting [7]) it was 66%. In addition, the “A35 (-)” value is listed as 0.79 - in series [4] (binder sheet (binder method)), 0.81 - in series [4] (setting [6]) and 0.78 - in series [4] (setting [7]). For the same compound, the “Maximum absorption wavelength (nm)” value is listed as 496 nm in series [5] (setting [9]), 500 nm in series [5] (setting [10]) and 496 nm in series [5] (setting [11]).
With `CCCOc1ccc(C2(c3ccc(OCCC)cc3)C=Cc3c4c(c5cc(N6CCOc7cc(C)ccc76)c(OC)cc5c3O2)-c2ccc(-c3ccc(C(F)(F)F)cc3)cc2C4(CCOC)CCOC)cc1` [Example 48 Formula (106)], the results for the “Residual rate (%)” value in series [1] (binder sheet (binder method)) and in series [1] (setting [7]) were 93% and 77%, respectively. In addition, the “A23 (-)” value is on record as 1.39 - in series [2] (binder sheet (binder method)) and 1.36 - in series [2] (setting [8]). In addition, the “A35/A23 *100 (%)” value in series [3] (binder sheet (binder method)) and in series [3] (setting [7]) was 65% in each case. Besides, the “A35 (-)” value in series [4] (binder sheet (binder method)) is given as 0.90 -; in series [4] (setting [7]), 0.88 -. Further, the “Maximum absorption wavelength (nm)” value in series [5] (setting [9]) and in series [5] (setting [11]) was 513 nm each time.
On to `COc1ccc(C2(c3ccc(OC)cc3)C=Cc3c4c(c5cc(N6CCc7cc(C)ccc76)c(OC)cc5c3O2)-c2ccccc2C4(C)C)cc1` [Formula (52A)], for which the Residual rate in series [1] (binder sheet (binder method)) was found to be 92%; in series [1] (setting [15]) it was 82%; in series [1] (setting [12]), 76%. Moreover, the “A35/A23 *100” value in series [3] (binder sheet (binder method)) is 75%; in series [3] (setting [15]) it was 76%; in series [3] (setting [12]), 75%. Besides, the Maximum absorption wavelength is recorded as 535 nm in series [5] (binder sheet (binder method)), 539 nm in series [5] (setting [15]) and 535 nm in series [5] (setting [12]).
